We go through two compounds from PMC7696255, “In-Silico Identified New Natural Sortase A Inhibitors Disrupt S. aureus Biofilm Formation” (International Journal of Molecular Sciences, 2020).

In test [1] the target is T1, S. aureus sortase A (Staphylococcus aureus, UniProt Q2FV99).
T1 construct: purchased AnaSpec AS-72229
As to the kind of experiment: SrtA enzyme inhibition FRET assay, DABCYL-LPETG-EDANS substrate. Format: biochemical. As to the method:
(§1) The enzymatic reactions were carried out in black, low-binding polystyrene 384 well plates (Greiner Bio-One). […] SrtA was pre-incubated in the reaction buffer with compounds for 1 h at room temperature prior to the addition of the FRET substrate. Assays were performed in 50 µL reactions with 50 ng of S. aureus sortase A and 25 µM of DABCYL-LPETG-EDANS substrate or 1 µM of 5-FAM/QXL^TM 520 substrate. The inhibitory activity of the compounds was determined by monitoring the rise in fluorescence intensity over 24 h at Ex/Em = 336 nm/490 nm for the DABCYL/EDANS substrate and Ex/Em = 490 nm/520 nm for the 5-FAM/QXL 520 substrate on a Tecan Infinite M1000 Pro reader.
(§2) Raw fluorescence data were corrected for autofluorescence before computing percentage inhibition values. These percentage inhibition values were plotted against compound concentration using GraphPad Prism version 8.0 by nonlinear regression analysis using least squares fit method for IC50 determination. Testing was performed twice to ensure reproducibility of results.

Test [2] addresses T1, S. aureus sortase A. As to the kind of experiment: SrtA enzyme inhibition FRET assay, 5-FAM/QXL 520 substrate. Format: biochemical. To be noted: Sortase A IC50, 5-FAM/QXL substrate; 10 min. As to the method: as §1, §2
In test [3] the test system is S. aureus ATCC 25923. Nature of the test: S. aureus whole cell assay (MIC, microbroth dilution). Format: cell-based, Staphylococcus aureus. To be noted: for S. aureus MIC: 24 h; for MIC: Staphylococcus aureus, ATCC25923, 24 h. As to the method:
(§3) Minimum inhibitory concentration (MIC) tests were performed according to procedures of the Clinical Laboratory Standards Institute (CLSI) with minor changes using the microbroth dilution technique in a 384-well setup. Inoculum of each S. aureus strain was prepared by suspending segregated colonies in sterile saline to a 0.5 McFarland standard. An inoculum of 2–8 × 10^5 CFU/mL was incubated with the compounds for 24 h at 37 °C. Gentamicin (data not shown) was incubated in the same manner as the test compounds and served as a positive control. The effect of the compounds on bacterial growth was calculated by quantifying the optical density at 600 nm on a microplate reader (Tecan, Infinite M1000, Salzburg, Austria). Dilutions of the inoculum were cultivated on agar to verify the validity of the inoculum seeding density and absence of contamination. All tests were executed in triplicate during two separate experiments.
In general terms: Dilution methods test growth across graded concentrations, often in twofold steps.

In test [4] the test system is S. aureus Newman. The test is described as above. The note with it: 24 h; for S. aureus MIC: Newman; for MIC: Staphylococcus aureus, NEWMAN. Format: cell-based, Staphylococcus aureus. As to the method:
as §3

Test [5] concerns A549 cells. As to the kind of experiment: Mammalian cell cytotoxicity assay (PrestoBlue). The note with it: read-out: Mammalian cell lines IC50. Format: cell-based, human. As to the method:
(§4) A549 and HepG2 cells were seeded at 1500 and 2500 cells per well, respectively, in 384-well microplates and incubated at 37 °C in the presence of 5% CO2. The next day, cells were treated with compounds then incubated for an additional 72 h. To assess the cytotoxic effect of the compounds PrestoBlue cell viability reagent (Life Technologies, Carlsbad, CA, USA) was used. After the 72 h incubation with compounds, the 384-well assay plates were incubated with this viability indicator dye for 2 h (A549) and 4 h (HepG2) before fluorescence reading at Ex/Em = 560 nm/590 nm on the Tecan Infinite M1000 Pro reader. Puromycin (data not shown) was used as the positive control against both cell lines. All tests were executed in triplicate on two separate experiments.

Test [6] relates to HepG2 cells. As to the kind of experiment: Mammalian cell cytotoxicity assay (PrestoBlue). Format: cell-based, human. The note with it: read-out: Mammalian cell lines IC50. As to the method:
as §4

In test [7] the test system is S. aureus ATCC 33591 (MRSA) biofilm formation. Nature of the test: Biofilm inhibitory assay (crystal violet), biofilm formation. Format: cell-based, Staphylococcus aureus. To be noted: for IC50: Staphylococcus aureus, S. aureus ATCC 33591 (MRSA), biofilm formation, read-out: Biofilm Inhibition IC50. As to the method:
(§5) The effectiveness of SrtA inhibitors in reducing biofilm formation and growth was assessed using the crystal violet (CV) biofilm assay with the following modifications. TSB with 2% glucose (TSB without glucose for E. coli) was inoculated with 10^5 CFU/mL of S. aureus and E. coli overnight cultures. A total of 90µl of this cell suspension was then dispensed into 96-well microtiter plates containing 10 µL of different concentrations of the SrtA inhibitors. After 24 h growth at 37 °C the plates were washed with PBS to remove unbound cells and heat fixed at 60 °C for 30 min. Next, the wells were stained with 0.1% crystal violet solution for 15 min at room temperature. At the completion of the incubation plates were washed 3 times with PBS and dried. Then the crystal violet dye from the biofilm was solubilized with 200 µL of DMSO. A total of 100 µL of this solution was then moved to a new microtiter plate for absorbance measurement at 595 nm. For pre-formed biofilm assay, the plates were prepared and incubated as mentioned earlier, without SrtA inhibitors. After 24 h incubation, the culture supernatant was removed gently and biofilm carefully washed with sterile PBS. Next, 10 µL of different concentrations of SrtA inhibitors with 90 µL of TSB with 2% glucose were added carefully into the wells and incubated at 37 °C for 24 h. The amount of crystal violet staining of biofilm was measured as described above. The results were reported as percent inhibition normalized to the wild type control. Two independent experiments were performed in triplicate to ensure reproducibility.

For test [8], the system named is S. aureus Newman biofilm formation. The description is as above. Format: cell-based, Staphylococcus aureus. The note with it: CV assay; for IC50: biofilm formation, read-out: Biofilm Inhibition IC50. As to the method: as §5
Test [9] relates to S. aureus ATCC 33591 (MRSA) pre-formed biofilms. As to the kind of experiment: Biofilm inhibitory assay (crystal violet), pre-formed biofilms. Format: cell-based, Staphylococcus aureus. As to the method: as §5
Test [10] relates to E. coli ATCC 25922 biofilm formation. Nature of the test: Biofilm inhibitory assay (crystal violet), biofilm formation. Format: cell-based. The note with it: in words; CV assay. As to the method:
as §5, with “Next, 10 µL of different concentrations of SrtA inhibitors with 90 µL of TSB with 2% glucose were added carefully into the wells and incubated at 37 °C for 24 h.” left out, “The results were reported as percent inhibition normalized to the wild type control. Two independent experiments were performed in triplicate to ensure reproducibility.” left out

The subject of test [11] is adherence of S. aureus Newman to fibrinogen. As to the kind of experiment: Fibrinogen binding assay. Format: cell-based, Staphylococcus aureus. To be noted: for IC50: Staphylococcus aureus, NEWMAN, read-out: Fibrinogen adherence Inhibition IC50; for concentration giving ≥90% prevention of S. aureus Newman adherence to fibrinogen: compared to untreated wildtype strain. As to the method: Fibrinogen binding assay was completed as described but with slight revision. A flat-bottom 96-well plate was covered with fibrinogen protein by adding 50 µL of 20 µg/mL of fibrinogen protein from bovine plasma diluted in saline and incubated at 4 °C for 24 h. The coated plates were gently rinsed twice with PBS and blocked for 60 min with 4% bovine serum albumin (BSA). The plates were then washed 3 times with PBS. For this assay, S. aureus Newman strain was cultivated in TSB at 37 °C to exponential phase (OD600 = 0.5) and then the bacterial culture was incubated with various concentrations of test compound or control for 2.5 h. Then the cells were pelleted by centrifugation at 10,000× g for 10 min, the supernatants were removed and the cell pellets stored at −20 °C. The following day, cell pellets were suspended in PBS and dispersed in 100 μL aliquots to distinct wells of fibrinogen-coated 96-well plates. After 2 h of growth at 37 °C, the bacterial supernatant was discarded and the wells were rinsed gently with 150 µl PBS. Then the bacterial cells were fixed with 2% (v/v) glutaraldehyde and incubated for 30 min at 25 °C. After a wash with PBS, bound cells were stained with 0.1% crystal violet dye for 15 min. Plates were rinsed twice again with PBS, enclosed with aluminum foil, then stored at room temperature to dry overnight. On the next day absorbance was measured at 570 nm. The results were described as the percent of adhesion inhibition normalized to the wild type control. Two independent experiments were performed in triplicate to ensure reproducibility.

Test [12] relates to S. aureus ATCC 33591 (MRSA). As to the kind of experiment: S. aureus whole cell assay (MIC, microbroth dilution). Format: cell-based, Staphylococcus aureus. To be noted: 24 h. As to the method:
as §3

Test [13] concerns S. aureus Newman pre-formed biofilms. As to the kind of experiment: Biofilm inhibitory assay (crystal violet), pre-formed biofilms. Format: cell-based, Staphylococcus aureus. The note with it: CV assay. As to the method: as §5
Where [14] appears, read: Sortase A IC50, DABCYL-LPETG-EDANS substrate, 4 h.
[15] abbreviates: SrtA enzymatic activity IC50, text summary, Figure 2A,B, both substrates.

In brackets after ≈: the same amount, converted by molar mass. Where two headings read alike, the source gives them in different places. Bounds are passed on as bounds.

T1 sequence (Q2FV99 whole entry): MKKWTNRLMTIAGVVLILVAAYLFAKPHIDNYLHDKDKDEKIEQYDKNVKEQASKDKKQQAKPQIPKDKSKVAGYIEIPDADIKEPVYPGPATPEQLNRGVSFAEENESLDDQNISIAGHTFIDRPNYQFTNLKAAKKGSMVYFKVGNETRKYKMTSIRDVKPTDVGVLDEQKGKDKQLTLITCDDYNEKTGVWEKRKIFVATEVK

On to `Cc1cc(O)c2c(c1)C(=O)c1c(c(O)cc(O)c1-c1c(O)cc(O)c3c1C(=O)c1cc(C)cc(O)c1C3=O)C2=O` [Compound N1287, Skyrin], for which the IC50 in test [1] (setting [14]) is 24 ± 2.1 µM; in test [1] (setting [15]), less than 50 µM; in [2], 31 ± 0.3 µM; in test [5] (72 h), 60 to 90 µM; in [5] (Homo sapiens, A549, 72 h), 64.7 ± 6.2 µM; in test [6] (72 h), 60 to 90 µM. Also, the 50% inhibitory concentration (IC50) in test [6] (Homo sapiens, HepG2, 72 h) turned out to be 63.9 ± 5.1 µM; in [7], 41.9 µM; in test [8] (Staphylococcus aureus, NEWMAN) it was 12.2 ± 4.1 µM; in [8], 12 µM; in test [11], 9.5 ± 0.5 µM. Also, the “S. aureus MIC” value in test [3] and in test [4] was 5 to 8 µM in each case. For the same compound, the results for the MIC in test [3] and in [4] were 7.2 ± 0.1 µM (≈ 3.88 µg/mL) and 7.3 ± 0.8 µM (≈ 3.93 µg/mL), respectively. Further, in test [7] (in words), the “inhibitory activity on MRSA biofilm formation” value is on record as “exhibited inhibitory activity”. Also, the “concentration giving >90% inhibition of biofilm formation” value in test [8] was determined as 23 µM. Also, the “inhibitory activity on MRSA pre-formed biofilms” value in [9] (in words) is on record as “not against pre-formed biofilms”. Moreover, the “effect on E. coli ATCC 25922 biofilm formation” value in test [10] is “did not show any effect”. The “concentration giving ≥90% prevention of S. aureus Newman adherence to fibrinogen” value in test [11] was found to be 46 µM.
For `CC(C)CCCc1c(O)ccc(C(=O)c2cc(Cl)c(Cl)[nH]2)c1O` [Compound N2576, (4,5-dichloro-1H-pyrrol-2-yl)-[2,4-dihydroxy-3-(4-methyl-pentyl)-phenyl]-methanone], the 50% inhibitory concentration (IC50) in test [1] (setting [14]) is 47 ± 4.2 µM; in [1] (setting [15]), less than 50 µM; in [2], 32 ± 6.3 µM; in test [5] (72 h), 60 to 90 µM; in test [5] (Homo sapiens, A549, 72 h), 88.1 ± 13 µM; in [6] (72 h) it was 60 to 90 µM. In addition, the IC50 in test [6] (Homo sapiens, HepG2, 72 h) was 65 ± 7.4 µM; in [7] it was 24.8 µM; in [8] (Staphylococcus aureus, NEWMAN), 2.9 µM; in [9] (Staphylococcus aureus, S. aureus ATCC 33591 (MRSA), pre-formed biofilms, read-out: Biofilm Inhibition IC50), greater than 200 µM; in test [13] (Staphylococcus aureus, pre-formed biofilms, read-out: Biofilm Inhibition IC50) it was 10 µM; in test [11] it was 5.7 ± 0.8 µM. For the same compound, the entries for the “S. aureus MIC” value in [3], in [12] and in test [4] were 5 to 8 µM, 25 to 80 µM and 5 to 8 µM, respectively. For the same compound, the minimum inhibitory concentration (MIC) is 6.3 ± 0.1 µM (≈ 2.24 µg/mL) in test [3], 25.2 ± 5.5 µM (≈ 8.98 µg/mL) in [12] (Staphylococcus aureus) and 5.8 ± 1.3 µM (≈ 2.07 µg/mL) in [4]. Further, the “concentration giving >90% inhibition on MRSA biofilm formation” value in [7] (CV assay) is 70 µM. In addition, the “concentration giving >90% inhibition of biofilm formation” value in test [8] was 4.4 µM. Moreover, in test [9] (CV assay), the “concentration giving >90% inhibition on MRSA preformed biofilms” value is 280 µM. The “concentration giving >90% inhibition on preformed biofilms” value in [13] is given as 17 µM. For the same compound, the “effect on E. coli ATCC 25922 biofilm formation” value in test [10] is recorded as “did not show any effect”. Further, the “concentration giving ≥90% prevention of S. aureus Newman adherence to fibrinogen” value in test [11] stood at 17 µM.

Usually IC50 stands for the concentration at which inhibition is half-maximal. A word on the MIC: it is the smallest concentration in the dilution series that meets the test's criterion for growth inhibition. The low end stands for inhibition by little substance, the high end for a need for much substance.
